Assays:
MCF-7 cells = assay: Cellular uptake (platinum by HR-CS-AAS), MCF-7; type: cell-based, human; settings: MCF-7, 20 μM
Protocol: In order to reach the DNA, the complexes must first pass through the cell membrane and penetrate into the nuclei. Therefore, the cellular uptake kinetics of GW7604-Alk-PtCl3 complexes were studied using the example of GW7604-Pent-PtCl3. This complex and Cisplatin, respectively, were incubated at a concentration of 20 μM with MCF-7 or SKBr3 cells. After various time points [i.e., 0 (3 min), 0.5, 1, 2, 4, and 8 h], cell pellets were prepared, and the platinum content was quantified by high-resolution continuum source atomic absorption spectrometry (HR-CS-AAS).[52]
After thawing of the cell/nuclei pellets, they were resuspended in ultrapure water (Siemens LaboStar, Günzburg, Germany; 300 μL) and lyzed with a sonotrode (Bandelin Sonoplus, Berlin, Germany; parameters 20 s, 9 cycles, 80% power). Graphite furnace (GF) AAS was used to quantify the lysates concerning their content of platinum (λ = 265.9450 nm). For this purpose, a contrAA 700 High-Resolution-Continous Source AAS (Analytik Jena, Jena, Germany) was employed, while atomization took place by electrothermal heating of graphite tubes with an inserted platform (Analytik Jena, Jena, Germany). A time–temperature program reported in the literature[25] was followed with minor adjustments. The liquid samples kept in 0.5 mL polystyrene vials (Gesellschaft für Analysentechnik, Salzwedel, Germany) were injected directly into the pyrolytically coated tubes using an MPE 60 autosampler (Analytik Jena, Jena, Germany). Throughout the measurements, argon (Alphagaz 1, 99.999%, Air Liquide, Düsseldorf, Germany) served as the purge and protective gas. The spectrometer was monitored with the ASpect CS software, version 2.3.1.0 (Analytik Jena, Jena, Germany). For all runs, the mean integrated absorbance was determined after three injections of each standard or sample. Calibration was performed by an appropriate dilution of a solution of Cisplatin (Sigma-Aldrich, Taufkirchen, Germany) obtaining five standards (2–10 μg/L, R^2 ≥ 0.982). Each cell/nuclei lysate was quantified concerning its protein content following the method of Bradford[71] in order to express the uptake as the amount of compound (pmol) in the lysate relative to its protein mass (mg). Therefore, solutions of Albumin fraction V (Carl Roth, Karlsruhe, Germany) diluted with ultrapure water were adduced for the calibration (six standards, 50–300 μg/mL, R^2 ≥ 0.996). A volume of 20 μL of the Albumin standards or the lysates was added to a 96-well plate (Sarstedt, Nürmbrecht, Germany) and supplemented with 200 μL of Bradford’s reagent (Roti-Nanoquant, Carl Roth, Karlsruhe, Germany; diluted 5-fold with ultrapure water). All standards and lysates were measured in duplicate. After incubating for 5 min at rt, the absorbance (λ = 595 nm) was read on a microplate reader (Tecan Safire 2, Männedorf, Switzerland). The cellular/nuclear uptake (pmol complex/mg protein) is given as the mean ± SD of 2 independent experiments.
For cellular uptake studies, 1.0 × 10^6 of MCF-7 and SKBr3 cells in their exponential growing phase were seeded into 25 cm^2 cell culture flasks and incubated for 24 h under a humidified atmosphere (5% CO2/95% air) at 37 °C. Stock solutions of the platinum complexes (GW7604-Pent-PtCl3, Cisplatin) in DMF were freshly prepared and diluted with complete DMEM containing 10% FCS to the desired concentration [final DMF concentration of 0.1% (v/v), final complex concentration of 20 μM]. The medium in the cell culture flasks was replaced with 3 mL of fresh cell culture medium containing the compounds, and the flasks were incubated under a humidified atmosphere at 37 °C for 3 min, 0.5, 1, 2, 4, and 8 h. Cell pellets were prepared by removing the medium, washing two times with phosphate-buffered saline (PBS), and detaching the cells with Accutase (GE Healthcare, BioSciences, Chicago, IL, USA). Subsequently, cells were pelleted by centrifugation (4 °C, 380g, 3 min). […]

nuclei of MCF-7 cells = assay: Nuclear uptake (platinum by HR-CS-AAS), MCF-7; type: cell-based, human; settings: MCF-7, 20 μM, 24 h; pmol complex/mg protein
Protocol: Fluorescence in the nuclei is not detectable. Therefore, the nuclei were analyzed for their platinum content using HR-CS-AAS.[25]
After thawing of the cell/nuclei pellets, they were resuspended in ultrapure water (Siemens LaboStar, Günzburg, Germany; 300 μL) and lyzed with a sonotrode (Bandelin Sonoplus, Berlin, Germany; parameters 20 s, 9 cycles, 80% power). Graphite furnace (GF) AAS was used to quantify the lysates concerning their content of platinum (λ = 265.9450 nm). For this purpose, a contrAA 700 High-Resolution-Continous Source AAS (Analytik Jena, Jena, Germany) was employed, while atomization took place by electrothermal heating of graphite tubes with an inserted platform (Analytik Jena, Jena, Germany). […] The spectrometer was monitored with the ASpect CS software, version 2.3.1.0 (Analytik Jena, Jena, Germany). For all runs, the mean integrated absorbance was determined after three injections of each standard or sample. […] Each cell/nuclei lysate was quantified concerning its protein content following the method of Bradford[71] in order to express the uptake as the amount of compound (pmol) in the lysate relative to its protein mass (mg). […] All standards and lysates were measured in duplicate. After incubating for 5 min at rt, the absorbance (λ = 595 nm) was read on a microplate reader (Tecan Safire 2, Männedorf, Switzerland). […]

[1] = Stability in organic solutions (1H NMR); type: physicochemical; settings: for amount of free ligand: DMF-d7, rt
Protocol: Furthermore, it needs to be clarified whether organic solvent molecules are capable of ligand exchange reactions at the PtCl3 unit and form corresponding reaction/degradation products of the GW7604-Alk-PtCl3 complexes. Therefore, ^1H NMR experiments were performed with noncoordinating [e.g., acetone-d6, methanol-d4] and coordinating [e.g., acetonitrile-d3 , DMF-d7, dimethyl sulfoxide-d6 (DMSO-d6)] solvents. It should further be assessed whether the solvents are suitable for preparing stock solutions for structural characterization or in vitro testing.
The solutions (concentrations of 4.5–5.0 mM) were stored in NMR tubes at room temperature (rt) after being purged with argon.

**Q.** With `CCC(=C(c1ccc(O)cc1)c1ccc(C=CC(=O)OCCC[CH]2[CH2][Pt-]2([Cl])([Cl])[Cl])cc1)c1ccccc1.[K+]` (mixture of isomers) [GW7604-Pent-PtCl3, Potassium trichlorido[η^2-(pent-4-en-1-yl (E)-3-(4-((E/Z)-1-(4-hydroxyphenyl)-2-phenylbut-1-en-1-yl)phenyl)acrylate)]platinate(II)] as the compound, how does the intracellular platinum amount (MCF-7 cells; 0.5 h) read?
**A.** 130 pmol/mg

**Q.** And the intracellular platinum amount (MCF-7 cells; 1 h)?
**A.** 265 pmol/mg

**Q.** And the intracellular platinum amount (MCF-7 cells; 2 h)?
**A.** 371 pmol/mg

**Q.** And the intracellular platinum amount (MCF-7 cells; 4 h)?
**A.** 659 pmol/mg

**Q.** What about the intracellular platinum amount (MCF-7 cells; 8 h) of the same compound?
**A.** 818 pmol/mg

**Q.** What about the “platinum content in the nuclei” value (nuclei of MCF-7 cells) of the same compound?
**A.** 145 pmol/mg

**Q.** What about the “amount of free ligand” value ([1]; 9 days) of the same compound?
**A.** about 33%

**Q.** And the “amount of free ligand” value ([1]; 14 days)?
**A.** about 40%

**Q.** And the “stability in DMSO-d6” value ([1]; DMSO-d6, measured after 5 min / immediately after dissolution)?
**A.** only signals of the free GW7604-Pent ligand

**Q.** And the “time to complete degradation of the complex” value ([1]; acetonitrile-d3, rt)?
**A.** ≤ 23 days

**Q.** What about the “complex that released the free ligand” value ([1]; acetonitrile-d3, rt, 4 days) of the same compound?
**A.** about 25%

**Q.** What about the “complex that released the free ligand” value ([1]; acetonitrile-d3, rt, 9 days) of the same compound?
**A.** about 35%

From paper PMC10983001, “Development of Cytotoxic GW7604-Zeise’s Salt Conjugates as Multitarget Compounds with Selectivity for Estrogen Receptor- Positive Tumor Cells” (Journal of Medicinal Chemistry, 2024)
